Experimental data reported in US9499551B2, “Substituted pyrrolo[2,3-b]pyridines for treating cancer or inflammatory diseases” (Confluence Life Sciences, Inc., priority 2014, dated 2016).

Biological target: T1, TAK1-TAB1 (Homo sapiens, UniProt O43318)
T1 sequence (O43318 with tags, fused parts or gaps limits assumed): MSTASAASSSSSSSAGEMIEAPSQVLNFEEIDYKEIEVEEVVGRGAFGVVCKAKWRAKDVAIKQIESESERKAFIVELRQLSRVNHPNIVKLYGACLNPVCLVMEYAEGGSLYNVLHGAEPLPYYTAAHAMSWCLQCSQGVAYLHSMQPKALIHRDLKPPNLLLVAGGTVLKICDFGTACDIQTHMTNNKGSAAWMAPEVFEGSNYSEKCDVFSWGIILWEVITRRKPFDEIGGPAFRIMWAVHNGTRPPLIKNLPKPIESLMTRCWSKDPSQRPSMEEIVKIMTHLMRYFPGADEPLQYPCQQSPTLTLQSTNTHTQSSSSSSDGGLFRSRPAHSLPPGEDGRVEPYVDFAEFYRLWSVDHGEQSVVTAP
Experiment: TAK1-TAB1 binding inhibitory potency (LanthaScreen competitive binding assay, kinase tracer-236)
Settings: 10 nM TAK1-TAB1, 100 nM kinase tracer-236; read-out: TAK1-Tab Inhibition IC50
From the text: TAK1-TAB1 Binding Inhibitory Potency:
The ability of candidate compounds to interact with TAK1-TAB1 is quantitated by a competitive binding assay using the LanthaScreen technology developed by Life Technologies. This assay is based on the binding of a proprietary, Alexa Fluor® 647-labeled, ATP-competitive kinase inhibitor (kinase tracer-236) to the TAK1-TAB1 construct in presence of a europium-conjugated antibody, resulting in a FRET (fluorescence resonance energy transfer) signal. Displacement of the kinase tracer by compound results in a lower emission ratio upon excitation of the europium chelate. Candidate compounds are designed as potential irreversible inhibitors of TAK1-TAB1, capable of ligating to an active site cysteine residue. The time dependent nature of irreversible inhibition is investigated by performing the binding assay with and without a pre-incubation of compound and TAK1-TAB1.
The inhibitory potency of candidate compounds is measured in 20 mM HEPES pH 7.5, 10 mM MgCl2, 0.01% BSA, 0.0005% Tween-20, and 2% DMSO in the presence of 10 nM TAK1-TAB1, 2 nM Eu-anti-his antibody, and 100 nM kinase tracer-236 using a 384-well plate format. Background signal is defined in the absence of TAK1-TAB1 and uninhibited signal is defined in the presence of vehicle (2% DMSO) alone. Compounds were evaluated in an 11 point dose-response ranging from 20 μM to 0.34 nM. The binding assays are performed under two conditions to evaluate time dependence of inhibition. For the pre-incubation assay, TAK1-TAB1 and Eu-anti-his antibody are preincubated with compound or vehicle for two hours prior to the addition of kinase tracer. The non-preincubated assay is run in which TAK1-TAB1 and Eu-anti-his antibody are added to a mixture of compound and kinase tracer. IC50 values of compounds are determined using a 4 parameter logistical fit of emission ratio as a function of the concentration of compound. […]

Compound | IC50 [nM]
C#CC(=O)Nc1c[nH]c2ncc(-c3ccccc3)cc12 [Example 238, N-(5-phenyl-1H-pyrrolo[2,3-b]pyridin-3-yl)propiolamide] | > 1000
CN(C)C/C=C/C(=O)Nc1c[nH]c2ncc(-c3ccccc3)cc12 [Example 241, (E)-4-(dimethylamino)-N-(5-phenyl-1H-pyrrolo[2,3-b]pyridin-3-yl)but-2-enamide] | > 1000
NC(=O)/C=C/c1c[nH]c2ncc(-c3ccc(N4CCCC4)nc3)nc12 [Example 254, (E)3-(2-(6-(pyrrolidin-1-yl)pyridin-3-yl)-5H-pyrrolo[2,3-b]pyrazin-7-yl)acrylamide] | > 1000
NC(=O)/C=C/c1c[nH]c2ncc(-c3ccc(C(=O)C(F)(F)F)cc3)cc12 [Example 319, (E)-3-(5-(4-(2,2,2-trifluoroacetyl)phenyl)-1H-pyrrolo[2,3-b]pyridin-3-yl)acrylamide] | ≤ 1000
CC(C)Cn1cc(-c2cnc3[nH]cc(/C=C/C(N)=O)c3c2)ccc1=O [Example 326, (E)-3-(5-(1-isobutyl-6-oxo-1,6-dihydropyridin-3-yl)-1H-pyrrolo[2,3-b]pyridin-3-yl)acrylamide] | ≤ 1000
CC(=O)c1ccc(-c2cnc3[nH]cc(/C=C/C(N)=O)c3n2)cc1C [Example 340, (E)-3-(2-(4-acetyl-3-methylphenyl)-5H-pyrrolo[2,3-b]pyrazin-7-yl)acrylamide] | ≤ 1000
CC(=O)c1ccc(-c2cnc3[nH]cc(/C=C/C(N)=O)c3c2)cc1C [Example 339, (E)-3-(5-(4-acetyl-3-methylphenyl)-1H-pyrrolo[2,3-b]pyridin-3-yl)acrylamide] | ≤ 1000
COc1cc(-c2cnc3[nH]cc(/C=C/C(N)=O)c3c2)cc(C(F)(F)F)c1 [Example 349, (E)-3-(5-(3-methoxy-5-(trifluoromethyl)phenyl)-1H-pyrrolo[2,3-b]pyridin-3-yl)acrylamide] | ≤ 1000
NC(=O)/C=C/c1c[nH]c2ncc(C(=O)c3ccccc3)cc12 [Example 338, (E)-3-(5-benzoyl-1H-pyrrolo[2,3-b]pyridin-3-yl)acrylamide] | ≤ 1000
NC(=O)/C=C/c1c[nH]c2ncc(-c3cccnc3)nc12 [Example 255, (E)-3-(2-(pyridin-3-yl)-5H-pyrrolo[2,3-b]pyrazin-7-yl)acrylamide] | > 1000
CON(C)C(=O)c1ccc(-c2cnc3[nH]cc(/C=C/C(N)=O)c3c2)cc1 [Example 329, (E)-4-(3-(3-amino-3-oxoprop-1-en-1-yl)-1H-pyrrolo[2,3-b]pyridin-5-yl)-N-methoxy-N-methyl-benzamide] | ≤ 1000
CC(=O)c1cccc(N2CCN(c3cnc4[nH]cc(/C=C/C(N)=O)c4c3)CC2)c1 [Example 346, (E)-3-(5-(4-(3-acetylphenyl)piperazin-1-yl)-1H-pyrrolo[2,3-b]pyridin-3-yl)acrylamide] | ≤ 1000
C=CC(=O)Nc1c[nH]c2ncc(-c3ccccc3)cc12 [Example 236, N-(5-phenyl-1H-pyrrolo[2,3-b]pyridin-3-yl)acrylamide] | > 1000
CC(C)COc1ccc(-c2cnc3[nH]cc(/C=C/C(N)=O)c3c2)cn1 [Example 325, (E)-3-(5-(6-isobutoxypyridin-3-yl)-1H-pyrrolo[2,3-b]pyridin-3-yl)acrylamide] | ≤ 1000
NC(=O)/C=C/c1c[nH]c2ncc(N3CC(NC(=O)C4CCCC4)C3)cc12 [Example 321, (E)-N-(1-(3-(3-amino-3-oxoprop-1-en-1-yl)-1H-pyrrolo[2,3-b]pyridin-5-yl)azetidin-3-yl) cyclopentane-carboxamide] | ≤ 1000
CC(C)(O)c1ccc(-c2cnc3[nH]cc(/C=C/C(N)=O)c3c2)cn1 [Example 312, (E)-3-(5-(6-(2-hydroxypropan-2-yl)pyridin-3-yl)-1H-pyrrolo[2,3-b]pyridin-3-yl)acrylamide] | ≤ 1000

Now from value to molecule:

IC50 [nM] | Compound
≤ 1000 | NC(=O)/C=C/c1c[nH]c2ncc(-c3cc(Cl)nc(C(F)(F)F)c3)cc12 [Example 350, (E)-3-(5-(2-chloro-6-(trifluoromethyl)pyridin-4-yl)-1H-pyrrolo[2,3-b]pyridin-3-yl)acrylamide]
≤ 1000 | CC(C)(O)c1ccc(-c2cnc3[nH]cc(/C=C/C(N)=O)c3n2)cn1 [Example 305, (E)-3-(2-(6-(2-hydroxypropan-2-yl)pyridin-3-yl)-5H-pyrrolo[2,3-b]pyrazin-7-yl)acrylamide]
≤ 1000 | O=C(/C=C/CO)Nc1c[nH]c2ncc(-c3ccccc3)cc12 [Example 239, (E)-4-hydroxy-N-(5-phenyl-1H-pyrrolo[2,3-b]pyridin-3-yl)but-2-enamide]
≤ 1000 | Cc1nc2[nH]cc(/C=C/C(N)=O)c2cc1-c1cccnc1 [Example 330, (E)-3-(6-methyl-5-(pyridin-3-yl)-1H-pyrrolo[2,3-b]pyridin-3-yl)acrylamide]
≤ 1000 | CCOCCOc1ccc(-c2cnc3[nH]cc(/C=C/C(N)=O)c3c2)cn1 [Example 336, (E)-3-(5-(6-(2-ethoxyethoxy)pyridin-3-yl)-1H-pyrrolo[2,3-b]pyridin-3-yl)acrylamide]
≤ 1000 | NC(=O)/C=C/c1c[nH]c2ncc(-c3ccc(OCC4CC4)nc3)cc12 [Example 327, (E)-3-(5-(6-(cyclopropyl-methoxy)pyridin-3-yl)-1H-pyrrolo[2,3-b]pyridin-3-yl)acrylamide]
≤ 1000 | CC(C)c1ccc(C(=O)N2CCN(c3cnc4[nH]cc(/C=C/C(N)=O)c4c3)CC2)cc1 [Example 335, (E)-3-(5-(4-(4-isopropylbenzoyl)piperazin-1-yl)-1H-pyrrolo[2,3-b]pyridin-3-yl)acrylamide]
≤ 1000 | Cc1nc(C(=O)N(C)C)ccc1-c1cnc2[nH]cc(/C=C/C(N)=O)c2c1 [Example 351, (E)-5-(3-(3-amino-3-oxoprop-1-en-1-yl)-1H-pyrrolo[2,3-b]pyridin-5-yl)-N,N,6-trimethyl-picolinamide]
≤ 1000 | CCOCCn1cc(-c2cnc3[nH]cc(/C=C/C(N)=O)c3c2)ccc1=O [Example 337, (E)-3-(5-(1-(2-ethoxyethyl)-6-oxo-1,6-dihydropyridin-3-yl)-1H-pyrrolo[2,3-b]pyridin-3-yl)acrylamide]
≤ 1000 | CC(C)(O)c1cc(-c2cnc3[nH]cc(/C=C/C(N)=O)c3c2)ccn1 [Example 317, (E)-3-(5-(2-(2-hydroxypropan-2-yl)pyridin-4-yl)-1H-pyrrolo[2,3-b]pyridin-3-yl)acrylamide]
≤ 1000 | NC(=O)/C=C/c1c[nH]c2ncc(-c3ccc(C(=O)c4cc(F)cc(F)c4)cc3)cc12 [Example 362, (E)-3-(5-(4-(3,5-difluorobenzoyl)phenyl)-1H-pyrrolo[2,3-b]pyridin-3-yl)acrylamide]
≤ 1000 | CC(=O)c1ccc(-c2cnc3[nH]cc(/C=C/C(N)=O)c3n2)cc1 [Example 307, (E)-3-(2-(4-acetylphenyl)-5H-pyrrolo[2,3-b]pyrazin-7-yl)acrylamide]
≤ 1000 | CC(C)(O)c1ccc(-c2cnc3[nH]cc(/C=C(\C#N)C(N)=O)c3c2)cc1 [Example 360, (E)-2-cyano-3-(5-(4-(2-hydroxypropan-2-yl)phenyl)-1H-pyrrolo[2,3-b]pyridin-3-yl)acrylamide]
≤ 1000 | NC(=O)/C=C/c1c[nH]c2ncc(-c3cc(C(F)(F)F)cc(C(F)(F)F)c3)nc12 [Example 316, (E)-3-(2-(3,5-bis(trifluoromethyl)phenyl)-5H-pyrrolo[2,3-b]pyrazin-7-yl)acrylamide]
≤ 1000 | Cc1cc(C2CCC(c3cnc4[nH]cc(/C=C/C(N)=O)c4c3)CC2)cc(C(F)(F)F)c1 (stereo not shown) [Example 358, (E)-3-(5-(4-(3-methyl-5-(trifluoromethyl)phenyl)cyclohexyl)-1H-pyrrolo[2,3-b]pyridin-3-yl)acrylamide]
≤ 1000 | CN1CCC(C(=O)c2ccc(-c3cnc4[nH]cc(/C=C/C(N)=O)c4n3)cc2)CC1 [Example 333, (E)-3-(2-(4-(1-methylpiperidine-4-carbonyl)phenyl)-5H-pyrrolo[2,3-b]pyrazin-7-yl)acrylamide]
≤ 1000 | Cc1cc(-c2cnc3[nH]cc(/C=C/C(N)=O)c3c2)cc(C(F)(F)F)c1 [Example 348, (E)-3-(5-(3-methyl-5-(trifluoromethyl)phenyl)-1H-pyrrolo[2,3-b]pyridin-3-yl)acrylamide]
≤ 1000 | CC(C)(O)c1cccc(-c2cnc3[nH]cc(/C=C(\C#N)C(N)=O)c3c2)c1 [Example 361, (E)-2-cyano-3-(5-(3-(2-hydroxypropan-2-yl)phenyl)-1H-pyrrolo[2,3-b]pyridin-3-yl)acrylamide]
